# Test results from article PMC9960331, “Antioxidant and Anticancer Potential of the New Cu(II) Complexes Bearing Imine-Phenolate Ligands with Pendant Amine N-Donor Groups” (Pharmaceutics, 2023).
# Read-outs that look alike come from different tables or passages of the source.
# How the values were obtained:
# [1] = ABTS radical cation scavenging assay; format: biochemical
# Source text: (§1) Both colorimetric assays are being used to estimate the radical scavenging capacity of organic and inorganic compounds [71, 72]. When DPPH reacts with an antioxidant compound, its free radical property is lost, and its color changes from violet to yellow. In the presence of an antioxidant, the ABTS radical, which has a strong absorption band at 734 nm, will be scavenged, and the reaction mixture will turn from blue to green. The results are expressed as a percentage of inhibition of DPPH radical or ABTS^+ radical when compared to samples from the control group (DMSO) without the compounds/standard (0% of radical inhibition). The experiment was repeated three times at each concentration.
# The radical cation ABTS was previously generated with sodium persulfate in the presence of potassium phosphate buffer. Briefly, the ABTS solution diluted in a phosphate buffer saline pH 7.4 was mixed with an aliquot of the compound for 30 min at room temperature in the dark. The ascorbic acid at 1, 10, 100, and 200 µM was used as a positive control to determine the maximal decrease in the ABTS^+ absorbance. The color reaction was measured at 730 nm and the results were expressed as a percentage (%) of the control. The ABTS radical scavenging capacity was calculated by the following equation: % ABTS^+ radical scavenging activity = {(A0 − A1)/A0} × 100 where A0 indicates the absorbance of the blank and A1 indicates the absorbance in the presence of the test sample.
# [2] = tested on: SW620 (colorectal adenocarcinoma); experiment: MTT cell viability assay, SW620; format: cell-based, human; details: for Concentration at which cytotoxicity starts, SW620: 24 h and 72 h; for IC50: Homo sapiens
# Method: (§2) Chinese hamster lung fibroblast (V79) cells and human cell lines [MCF-7 (breast adenocarcinoma), SW620 (colorectal adenocarcinoma), and MRC-5 (normal lung fibroblast)] were obtained from the Rio de Janeiro Cell Bank (Rio de Janeiro, RJ, Brazil). The cell lines were grown in DMEM supplemented with 10% heat-inactivated FBS or RPMI-1640 supplemented with 20% FBS, 0.2 mg/mL L-glutamine, 100 IU/mL penicillin, and 100 µg/mL streptomycin. Cells were kept in tissue culture flasks at 37 °C in a humidified atmosphere containing 5% CO2 and were harvested by treatment with 0.15% trypsin −0.08% EDTA in PBS.
# (§3) The cytotoxic potential of all compounds was measured by the methylthiazol tetrazolium (MTT) assay in Chinese hamster lung fibroblasts and human cell lines. Cell lines were cultured in a 96-well plate (1 × 10^4 cells/well) in complete media. V79 cells were treated for 24 h with all compounds at concentrations of 1, 10, 50 and100 µM. […] All compounds were dissolved in DMSO and added to the medium to reach the desired concentrations (0.1% of DMSO). The activity of this solvent alone was measured by a blank sample solution containing the same amount of DMSO. After the exposure period, the culture media were replaced with the addition of 100 µL serum-free media containing the 3-(4,5-dimethylthiazol-2-yl)-2,5-diphenyltetrazolium bromide) (MTT) dye (1 mg/mL), and incubated for 3 h at 37 °C After incubation, the supernatant was removed, the residual purple formazan product was solubilized in 150 µL DMSO, and its absorbance was measured at 570 nm. The assay was performed in triplicate.
# SW620 [3] = experiment: Clonogenic assay, SW620; format: cell-based, human; details: 72 h treatment
# Method: (§4) MCF-7, MRC-5, and SW620 human cell lines were seeded in 6-well plates at a density of 300 cells per well containing 1 mL of medium. […] The cell culture medium was changed to a new medium every 2 days. Cells were washed twice with PBS and fixed with methanol for 30 min, followed by staining with 0.5% crystal violet. The assay was performed in triplicate. Colonies were manually counted, and colony survival was presented as a percentage relative to the respective negative control.
# [4] = tested on: MRC-5 (normal lung fibroblast); experiment: MTT cell viability assay, MRC-5; format: cell-based, human; details: for Concentration at which cytotoxicity starts, MRC-5: 24 h and 72 h; for IC50: Homo sapiens
# Method: as §2, §3
# [5] = DPPH radical scavenging assay; format: biochemical; details: for Antioxidant ability in the DPPH radical capture assay: test doses 1-200 µM
# Source text: as §1
# DPPH assay: To determine the 1,1-diphenylpicrylhydrazyl (DPPH) radical scavenging activity, different concentrations of compounds (1, 5, 10, 50, 100, and 200 μM) were mixed with a methanolic solution of 0.1 mM DPPH radical for 30 min at 30 °C in the dark. The absorbance of the mixture was measured spectrophotometrically at 517 nm. The coloration change of the DPPH ethanolic solution from deep purple to yellow indicates the presence of antioxidants and then the free radical scavenging effect of these compounds. The ascorbic acid at 1, 10, 100, and 200 µM was used as a positive control to determine the maximal decrease in the DPPH absorbance. The percentage of DPPH radical scavenging activity was calculated by the following equation:% DPPH radical scavenging activity = {(A0 − A1)/A0} × 100 where A0 is the absorbance of the control, and A1 is the absorbance of the compounds/standard.
# MRC-5 [6] = experiment: Alkaline comet assay, MRC-5; format: cell-based, human; details: for Damage Índex (DI) ± SD, MRC-5: 3 h
# Method: (§5) For genotoxicity assays, 1.0 × 10^4 cells were seeded on twenty-four-well plates and incubated for 24 h. […] Each dose was evaluated by three independent experiments. The alkaline comet assay was performed as described by Singh et al.. Following treatment, cells were trypsinized and resuspended in a complete medium. Slides were prepared with 20 μL of cellular suspension and were dissolved in 0.75% low melting-point agarose. Slides were immersed in cold lysis buffer (2.5 M NaCl, 100 mM EDTA, 10 mM Tris, 1% Triton X-100, 10% DMSO, pH 10) for at least 1 h. Slides were placed in an electrophoresis chamber with cold alkaline buffer (300 mM NaOH and 1 mM de EDTA, pH > 13) to unwind the DNA. Electrophoresis was performed at 0.7 V/cm, 300 mA for 30 min at 4 °C. Slides were then neutralized with Tris–HCl buffer (pH 7.5) for 15 min and stored at room temperature. Slides were stained with silver staining protocol. The gels were then left to dry overnight at room temperature before being analyzed. From two replicate slides, 100 cells were selected and analyzed for DNA migration. Migration of DNA fragments was determined according to comet class as described by Azqueta: class 0, intact nuclei, without tail; class 1, nuclei with tail less than the diameter of the nucleus; class 2, tail size varying between one and two times the diameter of the nucleus; class 3, tail size varying between two and three times the diameter of the nucleus; and class 4, tail size more than three times the diameter of the nucleus but with the head and tail of the comet still distinguishable. The DI ranges from 0 (100 completely undamaged cells × 0) to 400 (100 cells with maximum damage × 4).
# MCF-7 [7] = experiment: Clonogenic assay, MCF-7; format: cell-based, human; details: 72 h treatment
# Method: as §4
# SW620 [8] = experiment: Alkaline comet assay, SW620; format: cell-based, human; details: for Damage Índex (DI) ± SD, SW620: 3 h
# Method: as §5
# MCF-7 [9] = experiment: Alkaline comet assay, MCF-7; format: cell-based, human; details: for Damage Índex (DI) ± SD, MCF-7: 3 h
# Method: as §5
# V79 cells = experiment: MTT cell viability assay, V79 cells; format: cell-based, Chinese hamster; details: Cricetulus griseus, V79, 24 h; read-out: IC50 V79 cell line
# Method: as §2
# The cytotoxic potential of all compounds was measured by the methylthiazol tetrazolium (MTT) assay in Chinese hamster lung fibroblasts and human cell lines. Cell lines were cultured in a 96-well plate (1 × 10^4 cells/well) in complete media. […] The activity of this solvent alone was measured by a blank sample solution containing the same amount of DMSO. After the exposure period, the culture media were replaced with the addition of 100 µL serum-free media containing the 3-(4,5-dimethylthiazol-2-yl)-2,5-diphenyltetrazolium bromide) (MTT) dye (1 mg/mL), and incubated for 3 h at 37 °C After incubation, the supernatant was removed, the residual purple formazan product was solubilized in 150 µL DMSO, and its absorbance was measured at 570 nm. […]
# [10] = tested on: MCF-7 (breast adenocarcinoma); experiment: MTT cell viability assay, MCF-7; format: cell-based, human; details: for Concentration at which cytotoxicity starts, MCF-7: 24 h and 72 h; for IC50: Homo sapiens
# Method: as §2, §3
# MRC-5 [11] = experiment: Clonogenic assay, MRC-5; format: cell-based, human; details: 72 h treatment; general statement covers MCF-7, SW620 and MRC-5
# Method: as §4
# [12] = tested on: SW620 (colorectal adenocarcinoma); details: 72 h; cited from earlier work
# [13] = tested on: MCF-7 (breast adenocarcinoma); parameters: method as in PMID 36592511; details: 72 h; cited from earlier work
SMILES,"IC50 ([2]; SW-620, 24 h) [µM]","IC50 ([2]; SW-620, 72 h) [µM]","Concentration at which cytotoxicity starts, SW620 [2] [µM]","Inhibition of colony survival, SW620 compared with MRC-5 (SW620 [3])","Concentration at which cytotoxicity starts, MRC-5 [4] [µM]","IC50 ([4]; MRC5, 24 h) [µM]","IC50 ([4]; MRC5, 72 h) [µM]",Antioxidant ability in the DPPH radical capture assay [5],"Concentrations that increase damage index (DI), MRC-5 (MRC-5 [6])","Damage Índex (DI) ± SD, MRC-5 (MRC-5 [6]; 1 μM)","Damage Índex (DI) ± SD, MRC-5 (MRC-5 [6]; 10 μM)","Damage Índex (DI) ± SD, MRC-5 (MRC-5 [6]; 50 μM)","Damage Índex (DI) ± SD, MRC-5 (MRC-5 [6]; 100 μM)","Concentrations that increase damage index (DI), SW620 (SW620 [8])","Damage Índex (DI) ± SD, SW620 (SW620 [8]; 1 μM)","Damage Índex (DI) ± SD, SW620 (SW620 [8]; 10 μM)","Damage Índex (DI) ± SD, SW620 (SW620 [8]; 50 μM)","Damage Índex (DI) ± SD, SW620 (SW620 [8]; 100 μM)","Concentrations that increase damage index (DI), MCF-7 (MCF-7 [9])","Damage Índex (DI) ± SD, MCF-7 (MCF-7 [9]; 1 μM)",further results
O=c1[nH]cc(F)c(=O)[nH]1 [5-Fluorouracil],,,,,,,,,,,,,,,,,,,,,IC50 [12]: 4 µM
"O=C1O[C@H]([C@@H](O)CO)C(O)=C1O [Ascorbic acid, ascorbic acid, reference compound]",,,,,,,,,,,,,,,,,,,,,IC50 ([5]; concentration to decrease 50% of DPPH radical formation): 17 µM
N.N.[Cl][Pt][Cl] [cisplatin],,,,,,,,,,,,,,,,,,,,,IC50 [13]: 12.7 ± 0.1 µM

# Further lines, with some results ahead:
"IC50 ([2]; SW-620, 24 h) [µM]","IC50 ([2]; SW-620, 72 h) [µM]",SMILES,"Concentration at which cytotoxicity starts, SW620 [2] [µM]","Inhibition of colony survival, SW620 compared with MRC-5 (SW620 [3])","Concentration at which cytotoxicity starts, MRC-5 [4] [µM]","IC50 ([4]; MRC5, 24 h) [µM]","IC50 ([4]; MRC5, 72 h) [µM]",Antioxidant ability in the DPPH radical capture assay [5],"Concentrations that increase damage index (DI), MRC-5 (MRC-5 [6])","Damage Índex (DI) ± SD, MRC-5 (MRC-5 [6]; 1 μM)","Damage Índex (DI) ± SD, MRC-5 (MRC-5 [6]; 10 μM)","Damage Índex (DI) ± SD, MRC-5 (MRC-5 [6]; 50 μM)","Damage Índex (DI) ± SD, MRC-5 (MRC-5 [6]; 100 μM)","Concentrations that increase damage index (DI), SW620 (SW620 [8])","Damage Índex (DI) ± SD, SW620 (SW620 [8]; 1 μM)","Damage Índex (DI) ± SD, SW620 (SW620 [8]; 10 μM)","Damage Índex (DI) ± SD, SW620 (SW620 [8]; 50 μM)","Damage Índex (DI) ± SD, SW620 (SW620 [8]; 100 μM)","Concentrations that increase damage index (DI), MCF-7 (MCF-7 [9])","Damage Índex (DI) ± SD, MCF-7 (MCF-7 [9]; 1 μM)",further results
27.6 ± 1.2,16.4,CC(C)(C)c1cc(/C=N/CCNc2ccccc2)c(O)c(C(C)(C)C)c1 [1a],10,not selective,10,14.7 ± 1.1,17.1,inability to be antioxidants,10 to 100 µM,19.3 ± 3.9,39.7 ± 9.5,121.3 ± 10.0,200.3 ± 22.0,50 µM and 100 µM,16.7 ± 2.5,21.3 ± 6.7,107.0 ± 7.2,212.3 ± 2.5,10 to 100 µM,14.7 ± 3.2,"Concentration from which ABTS+ radical scavenging activity is present [1]: 5 µM; Imax (% of maximal inhibition), ABTS+ [1]: up to 87%; IC50 ([1]; concentration to decrease 50% of ABTS+ radical formation): 7.5 ± 2.2 µM; Inhibition of colony survival, MCF-7 compared with MRC-5 (MCF-7 [7]): not selective; Damage Índex (DI) ± SD, MCF-7 (MCF-7 [9]; 10 μM): 34.3 ± 4.2; Damage Índex (DI) ± SD, MCF-7 (MCF-7 [9]; 50 μM): 100.7 ± 2.9; Damage Índex (DI) ± SD, MCF-7 (MCF-7 [9]; 100 μM): 154.7 ± 7.2; IC50 (V79 cells): 23 µM; Concentration at which cytotoxicity starts, MCF-7 [10]: 10 µM; IC50 ([10]; MCF7, 24 h): 30.5 ± 4.4 µM; IC50 ([10]; MCF7, 72 h): 28.6 µM"
41.9 ± 9.7,10.5,"CC(C)(C)c1cc(/C=N/c2cccc3cccnc23)c(O)c(C(C)(C)C)c1 [1b, [6-(C9H6N-8-(N=CH))-2,4-di-tert-butyl-(OHC6H2)]]",1,more potent inhibitory effect on the SW620 cells than on MRC-5 cells,10,63.4 ± 5.5,15.5,inability to be antioxidants,50 µM and 100 µM,16.3 ± 2.5,20.0 ± 5.2,101.0 ± 5.0,135.0 ± 6.2,≥ 10 µM,10.0 ± 1.0,34.7 ± 7.4,120.0 ± 5.3,236.0 ± 8.2,50 µM and 100 µM,16.0 ± 4.0,"ABTS+ radical scavenging activity ([1]; doses 1-200 µM): inactive at all doses; Inhibition of cell proliferation at the highest treatment concentrations tested (colony survival) (MRC-5 [11]): not statistically significant; Damage Índex (DI) ± SD, MCF-7 (MCF-7 [9]; 10 μM): 22.3 ± 6.4; Damage Índex (DI) ± SD, MCF-7 (MCF-7 [9]; 50 μM): 52.7 ± 9.5; Damage Índex (DI) ± SD, MCF-7 (MCF-7 [9]; 100 μM): 102.0 ± 6.0; IC50 (V79 cells): 69 ± 9 µM; Concentration at which cytotoxicity starts, MCF-7 [10]: 10 µM; IC50 ([10]; MCF7, 24 h): 111 ± 9.5 µM; IC50 ([10]; MCF7, 72 h): 44.5 µM"
